From article PMC7073886, “Structure–Bioactivity Relationships of Lapatinib Derived Analogs against Schistosoma mansoni” (ACS Medicinal Chemistry Letters, 2020)
In brackets after ≈: the same amount, converted by molar mass. Like-named read-outs stand apart in the source and are kept apart here.

How the values were obtained:
[1] = Aqueous pH 7.4 solubility; assay type: physicochemical; details: for solubility: phosphate buffer pH 7.4, 25 °C, 20-24 h, read-out: aq sol (aqueous solubility)
[2] = Log D7.4 shake-flask octanol-water; assay type: physicochemical; details: pH 7.4
Rat hepatocyte Clint = assay type: in vitro ADME; details: rat hepatocytes, intrinsic clearance; for hepatocyte CLint: read-out: RH CLint
adult S. mansoni = experiment: Phenotypic screen of adult S. mansoni worms, severity scores and descriptors; assay type: cell-based, Schistosoma mansoni; details: for Descriptors (10 µM) 1 h / Severity Scores (10 μM) 1 h / Descriptors (10 µM) 5 h / Severity Scores (10 μM) 5 h / Descriptors (10 µM) 24 h / Severity Scores (10 μM) 24 h / Descriptors (10 µM) 48 h / Severity Scores (10 μM) 48 h: adult S. mansoni; for Descriptors (10 µM) 1 h / Descriptors (10 µM) 5 h / Descriptors (10 µM) 24 h / Descriptors (10 µM) 48 h: phenotypic descriptors; for Severity Scores (10 μM) 1 h / Severity Scores (10 μM) 5 h / Severity Scores (10 μM) 24 h / Severity Scores (10 μM) 48 h: scale 0 (no activity) to 4 (maximal activity); for bioactivity against adult S. mansoni: adult schistosomes; for Severity Scores (10 μM) 1 h / Severity Scores (10 μM) 5 h / Severity Scores (10 μM) 24 h / Severity Scores (10 μM) 48 h / bioactivity against adult S. mansoni: 10 μM
In short: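 Adult S. mansoni (NMRI isolate, ≥42 days old) were co-incubated with compounds and changes in motility, density, shape and adherence recorded visually over time and concentration. Descriptors converted to severity scores from 0 (no activity) to 4 (maximal).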

[3] = Human liver microsomal Clint; assay type: in vitro ADME; details: for microsomal CLint / HLM Clint: human liver microsomes, intrinsic clearance; for microsomal CLint: read-out: HLM Clint
[4] = Human plasma protein binding (equilibrium dialysis); assay type: in vitro ADME; details: for fraction unbound at 10 µM: pH 7.4, 37 °C; for human PPB (plasma protein binding): 10 µM
HepG2 cells = experiment: Drug toxicity to HepG2 cells (MTT); assay type: cell-based; details: for HepG2 TC50: HepG2 cells, 48 hours incubation, MTT
[5] = aqueous buffer, thermodynamic from solid
[6] = read-out: human PPB (plasma protein binding) (converted)

Structure (SMILES) | solubility [1, 5] | logD [2] | hepatocyte CLint (Rat hepatocyte Clint) | Descriptors (10 µM) 1 h (adult S. mansoni) | Severity Scores (10 μM) 1 h (adult S. mansoni) | Descriptors (10 µM) 5 h (adult S. mansoni) | Severity Scores (10 μM) 5 h (adult S. mansoni) | Descriptors (10 µM) 24 h (adult S. mansoni) | Severity Scores (10 μM) 24 h (adult S. mansoni) | Descriptors (10 µM) 48 h (adult S. mansoni) | Severity Scores (10 μM) 48 h (adult S. mansoni) | bioactivity against adult S. mansoni (adult S. mansoni) | microsomal CLint [3] | fraction unbound at 10 µM [4, 6] | also measured
c1cnc(Nc2ccnc3cc(-c4cnc(N5CCCNCC5)nc4)ccc23)cn1 [4g] | 53 µM (≈ 21.1 µg/mL) | 1.8 | 4 µL/min/1e6 cells | none | 0 | none | 0 | none | 0 | none | 0 | bioactivity of this series was not observed | 19 µL/min/mg | 0.37 | –
CN1CCCN(c2ncc(-c3ccc4c(Nc5ccncn5)ccnc4c3)cn2)CC1 [5c] | 930 µM (≈ 384 µg/mL) | 2.2 | 82 µL/min/1e6 cells | none | 0 | none | 0 | none | 0 | none | 0 | complete loss in activity | 74 µL/min/mg | 0.34 | –
COc1ccc(Nc2ccnc3cc(-c4ccc(S(=O)(=O)N5CCCN(C)CC5)cc4)ccc23)cc1Cl [5e] | 0.3 µM (≈ 0.161 µg/mL) | 4.4 | 15 µL/min/1e6 cells | none | 0 | none | 0 | none | 0 | none | 0 | complete loss of bioactivity | 300 µL/min/mg | 0.01 | –
CN1CCCN(S(=O)(=O)c2ccc(-c3ccc4c(Nc5ccc(Cl)cn5)ccnc4c3)cc2)CC1 [5f] | 4 µM (≈ 2.03 µg/mL) | 4.5 | 30 µL/min/1e6 cells | – | 2 | S, on sides | 2 | Dark, S | 2 | Dark, S | 2 | moderate bioactivity recorded after 1 h | 300 µL/min/mg | < 0.01 | –
Cc1ccc2[nH]c3c4ccc(-c5cnc(N6CCCN(C)CC6)nc5)cc4ncc3c2c1 [6c] | 14 µM (≈ 5.92 µg/mL) | 5 | 7 µL/min/1e6 cells | – | 3 | – | 4 | – | 4 | – | 4 | severe bioactivity after 1 h | 130 µL/min/mg | < 0.01 | –
COc1ccc(NC(=O)c2ccc(-c3cnc(N4CCN(C)CC4)nc3)cc2O)cc1Cl [7a] | 5 µM (≈ 2.27 µg/mL) | 3.8 | 300 µL/min/1e6 cells | none | 0 | none | 0 | none | 0 | – | – | complete loss of activity | 44 µL/min/mg | < 0.01 | –
COc1ccc(NC(=O)c2ccc(-c3ccc(S(=O)(=O)N4CCN(C)CC4)cc3)cc2O)cc1Cl [7c] | 6 µM (≈ 3.1 µg/mL) | 3.9 | 300 µL/min/1e6 cells | none | 0 | – | 3 | – | 2 | – | – | phenotypic response after 5 h | 62 µL/min/mg | < 0.01 | –
COc1ccc(NC(=O)c2ccc(-c3cccc(N4CCOCC4)c3)cc2O)cc1Cl [7d] | 0.1 µM (≈ 0.0439 µg/mL) | 4.7 | 300 µL/min/1e6 cells | S, on sides | 2 | S, on sides | 2 | S, on sides, dark | 3 | – | 4 | phenotypic response after 1 h which increased in severity over time | 12 µL/min/mg | < 0.01 | –
COc1ccc(NC(=O)c2ccc(-c3cccc(N4CCOCC4)c3)cc2N)cc1Cl [7e] | 0.6 µM (≈ 0.263 µg/mL) | 3.6 | 4.4 µL/min/1e6 cells | none | 0 | none | 0 | S, on sides | 2 | – | 2 | bioactivity after 24 h | 59 µL/min/mg | < 0.01 | –
Cc1cc2c(Nc3cnccn3)ccnc2cc1-c1cnc(N2CCN(C)CC2)nc1 [8a] | – | 3.3 | – | Unc, on sides | 2 | – | – | – | 4 | – | 4 | severe phenotypic response by 5 h | – | – | decrease in aqueous solubility compared with 3 ([1]; relative to 3): > 2200 fold; increase in toxicity against HepG2 cells compared with 3 (HepG2 cells; relative to 3): greater than 5 fold
Cc1cc2c(Nc3cnccn3)ccnc2cc1-c1cnc(N2CCCN(C)CC2)nc1 [8b] | – | 2.5 | 42 µL/min/1e6 cells | – | 4 | – | 4 | – | 4 | – | 4 | severe phenotypic response recorded after 1 h | – | – | improvement in solubility compared to 8a ([1]; relative to 8a): > 33,500 fold; clearance increase compared to 8a ([3]; relative to 8a): 2 fold; fraction unbound ([4]; pH 7.4, 10 µM, 37 °C, read-out: human PPB (plasma protein binding) (converted)): 0.18
C[S+]([O-])CCNc1ncc(-c2ccc3c(Nc4cnccn4)ccnc3c2)cn1 (stereo not shown) [S2b] | – | – | – | none | 0 | none | 0 | none | 0 | – | – | – | – | – | solubility [1]: 11 µM (≈ 4.46 µg/mL); LogD 7.4 [2]: 1.7; RH CLint (Rat hepatocyte Clint): 7.6 µL/min/10^6 cells; HLM Clint [3]: 6 μL/min/mg protein; HepG2 TC50 (HepG2 cells): > 37 µM
CN(C)CCN(C)c1ncc(-c2ccc3c(Nc4cnccn4)ccnc3c2)cn1 [S2c] | – | – | – | none | 0 | none | 0 | none | 0 | none | 0 | – | – | – | solubility [1]: 630 µM (≈ 252 µg/mL); LogD 7.4 [2]: 2.3; RH CLint (Rat hepatocyte Clint): 55 µL/min/10^6 cells; HLM Clint [3]: 45 μL/min/mg protein; HepG2 TC50 (HepG2 cells): > 38 µM
CN1CCCN(c2ccc(Nc3ccc4c(Nc5cnccn5)ccnc4c3)cc2)CC1 [S3k] | – | – | 14 µL/min/1e6 cells | none | 0 | none | 0 | S, on sides | 2 | S, on sides | 2 | – | 30 µL/min/mg | – | HepG2 TC50 (HepG2 cells): 17 µM
C[C@@H]1CNCCN1C(=O)c1ccc(-c2cnc(N3CCCN(C)CC3)nc2)cc1N [S4c] | – | – | – | none | 0 | none | 0 | none | 0 | – | – | – | – | – | solubility [1]: 930 µM (≈ 381 µg/mL); LogD 7.4 [2]: -0.4; RH CLint (Rat hepatocyte Clint): 2.6 µL/min/10^6 cells; human PPB (plasma protein binding) ([4]; 37 °C): 42%; HepG2 TC50 (HepG2 cells): > 37 µM
C[C@@H]1CNCCN1C(=O)c1ccc(-c2cccc(N3CCOCC3)c2)cc1N [S4d] | – | – | – | none | 0 | none | 0 | none | 0 | none | 0 | – | – | – | solubility [1]: 950 µM (≈ 361 µg/mL); LogD 7.4 [2]: 1; human PPB (plasma protein binding) ([4]; 37 °C): 63%; HepG2 TC50 (HepG2 cells): > 40 µM
Fc1cccc(COc2ccc(Nc3ncnc4ccc(-c5cccc(N6CCOCC6)c5)cc34)cc2Cl)c1 [compound 2] | < 1 µM | – | – | – | – | – | – | – | – | – | – | – | – | < 0.01 | RH CLint (Rat hepatocyte Clint): 44 µL/min/10^6 cells; HLM Clint [3]: 63 μL/min/mg protein
